Broadly, the IC50 is the concentration that inhibits the measured activity by half.

Each structure is given as a SMILES string. Where a name gives a salt, the structure may show the parent alone.

One experiment addresses LSD1 (Homo sapiens (Human), UniProt O60341). Put plainly: In vitro enzyme inhibition assay - LSD1 (HTRF). In kind it is biochemical. A general note: In TR-FRET formats the signal depends on donor and acceptor labels being close together.
The next experiment has as its system NCI-H1417 cells. Put plainly: In vitro cell inhibition assay - H1417 cell proliferation (CellTiter-Glo). In kind it is cell-based. In short, it runs like this: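 Cells exposed to 8 compound concentrations (5-fold dilutions) in BEGM with 10% FBS for 7 days at 37° C., 5% CO2. Viable cells measured by CellTiter-Glo luminescence; inhibition versus no-inhibitor and no-cell controls, IC50 fitted.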

Another experiment deals with NCI-H69 cells. As to the kind of experiment: In vitro cell inhibition assay - NCI-H69 cell proliferation (CellTiter-Glo). In kind it is cell-based. In short, it runs like this:
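Proliferation was assessed after a 7-day compound treatment of cells seeded at 1×10^3 per well. IC50 values came from fitting inhibition rates derived from CellTiter-Glo luminescence.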
In general terms: ATP-based viability assays read luminescence as a measure of living cells.

For the next experiment, the system named is DU145 cells. Put plainly: In vitro cell inhibition assay - DU145 cell proliferation (CellTiter-Glo). In kind it is cell-based. The procedure, abridged:
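Viability read-out was CellTiter-Glo luminescence after a 6-day, 37° C exposure of DU145 cells (1×10^3/well, 10% FBS RPMI-640) to 8 compound concentrations in 5-fold steps.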

In the next experiment the test system is NCI-H526 cells. As to the kind of experiment: In vitro cell inhibition assay - NCI-H526 cell proliferation (CellTiter-Glo). In kind it is cell-based. Particulars: H526 small cell lung cancer cell proliferation, 5 days. As for the experimental part:
6. In Vitro Cell Inhibition Assay—NCI-H526 Cell Proliferation
The inhibitory effect of the compounds on cell proliferation was assessed by detecting the number of viable cells using CellTiter-Glo® reagent. NCI-H526 cells in the logarithmic growth phase were collected and inoculated into transparent bottom 96-well plates at a density 1×10^3 cells per well with 100 μL of medium, and incubated at 37° C., 5% CO2 overnight. The compounds were sequentially diluted in a 5-fold concentration gradient with DMSO to obtain 8 different concentrations. These were then diluted with RPMI-640 (containing 10% FBS) cell culture medium to obtain the compound working solution (2×), which was added to the cell supernatant at 100 μL per well. The incubation continued for 5 days at 37° C., 5% CO2. The plate was then removed and equilibrated at room temperature (25° C.) along with the CellTiter-Glo® mixing reagent for 10-30 minutes; 80 μL of the culture medium was carefully aspirated from each well, and 80 μL of CellTiter-Glo® reagent was added. The cells were thoroughly mixed with the CellTiter-Glo® mixing reagent using a microplate shaker for 2 min. and then incubated at room temperature for 10 min. The 96-well plate was subsequently placed on a multifunctional microplate reader to record the Luminescence values (RLU).
The inhibition rate was calculated using the following formula: […]
Note: ‘Negative’ refers to the group without inhibitors; ‘Blank’ refers to the group without cells.
The IC50 value was determined by fitting the inhibition rate by GraphPad Prism software.

The target of another experiment is pan-HDAC. As to the kind of experiment: In vitro enzyme inhibition assay - HDAC (HDAC-Glo I/II), pan-HDAC. The format is biochemical. In short, it runs like this:
(§1)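 Inhibition was measured with the HDAC-Glo I/II luminescent assay, testing compound as an 8-point, 5-fold dilution series from a 1 mM DMSO stock. Luminescence (RLU) was normalized to no-inhibitor and no-enzyme controls, and IC50 was derived by four-parameter variable-slope fitting.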

A further experiment deals with HDAC8 (Homo sapiens (Human), UniProt Q9BY41). As to the kind of experiment: In vitro enzyme inhibition assay - HDAC (HDAC-Glo I/II), HDAC8. In kind it is biochemical. Particulars: read-out: HDAC IC50 (nM) HDAC 8. The procedure, abridged: as §1
Chain of HDAC8 (Q9BY41 whole entry): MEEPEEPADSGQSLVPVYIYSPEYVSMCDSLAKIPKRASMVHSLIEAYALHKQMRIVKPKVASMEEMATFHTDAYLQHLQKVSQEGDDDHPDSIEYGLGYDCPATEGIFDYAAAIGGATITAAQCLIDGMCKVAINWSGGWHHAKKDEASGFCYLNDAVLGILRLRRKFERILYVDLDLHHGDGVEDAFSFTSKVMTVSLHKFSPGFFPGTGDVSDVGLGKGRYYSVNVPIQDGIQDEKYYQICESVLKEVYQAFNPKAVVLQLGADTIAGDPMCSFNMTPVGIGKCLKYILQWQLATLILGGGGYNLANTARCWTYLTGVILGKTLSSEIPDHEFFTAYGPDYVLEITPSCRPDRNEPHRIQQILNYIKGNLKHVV
The mark [1] stands for this setting: Homo sapiens, NCI-H1417, H1417 small cell lung cancer cell proliferation.
Setting [2] is: Homo sapiens, NCI-H69, H69 small cell lung cancer cell proliferation.
The mark [3] stands for this setting: Homo sapiens, DU-145, Du145 prostate cancer cell proliferation.

With `COc1ccc(-c2cnc(N3CCC(NCc4ccc(/C=C/C(=O)NO)cc4)CC3)c(C#N)c2-c2ccc(C#N)c(F)c2)cc1O` [Example 37, (E)-3-(4-(((1-(3-cyano-4-(4-cyano-3-fluorophenyl)-5-(3-hydroxy-4-methoxyphenyl)pyridin-2-yl)piperidin-4-yl)amino)methyl)phenyl)-N-hydroxyacrylamide hydrochloride], the IC50 at LSD1 is 1.95 nM; with NCI-H1417 cells (setting [1]) it was 6.56 nM; with NCI-H69 cells (setting [2]) it was 8.52 nM; with DU145 cells (setting [3]), 26 nM; in the experiment with NCI-H526 cells (Homo sapiens, NCI-H526, 120 h) it was 10.3 nM.
In the case of `COc1ccc(-c2cnc(N3CCC(NCc4ccc(/C=C/C(=O)NO)cc4)CC3)c(F)c2-c2ccc(C#N)c(F)c2)cc1O` [Example 76, (E)-3-(4-(((1-(4-(4-cyano-3-fluorophenyl)-3-fluoro-5-(3-hydroxy-4-methoxyphenyl)pyridin-2-yl)piperidin-4-yl)amino)methyl)phenyl)-N-hydroxyacrylamide formate], the IC50 came out at 11.7 nM in the experiment on NCI-H1417 cells (setting [1]); 3.96 nM with NCI-H69 cells (setting [2]); 11 nM in the experiment on DU145 cells (setting [3]); 8.27 nM in the experiment with NCI-H526 cells (Homo sapiens, NCI-H526, 120 h).
For the compound `N#Cc1ccc(-c2c(-c3ccc(/C=C/C(=O)NO)c(O)c3)cnc(N3CCC(NCc4ccc(/C=C/C(=O)NO)cc4)CC3)c2C#N)cc1F` [Example 90], the IC50 in the experiment on NCI-H1417 cells (setting [1]) was determined as 42 nM; with NCI-H69 cells (setting [2]), 6.49 nM; in the experiment with DU145 cells (setting [3]), 45.3 nM; with NCI-H526 cells (Homo sapiens, NCI-H526, 120 h) it was 34.6 nM.
With `COc1ncc(-c2cnc(N3CCC(NCc4ccc(/C=C/C(=O)NO)cc4)CC3)c(C#N)c2-c2ccc(C#N)c(F)c2)cc1O` [Example 123, (E)-3-(4-((1-(5-Cyano-4-(4-cyano-3-fluorophenyl)-5′-hydroxy-6′-methoxy-[3,3′-bipyridin]-6-yl)piperidin-4-yl)amino)methyl) phenyl)-N-hydroxyacrylamide trifluoroacetate], the IC50 was found to be 0.74 nM against LSD1; 4.2 nM with NCI-H1417 cells (H1417 small cell lung cancer cell proliferation); 76.3 nM with NCI-H69 cells (H69 small cell lung cancer cell proliferation); 112 nM with DU145 cells (Du145 prostate cancer cell proliferation); 71.3 nM in the experiment on NCI-H526 cells.
With `COc1ccc(-c2cnc(N3CCC(NCc4ccc(/C=C/C(=O)NO)cc4OC)CC3)c(C#N)c2-c2ccc(C#N)c(F)c2)cc1O` [Example 132, (E)-3-(4-(((1-(3-Cyano-4-(4-cyano-3-fluorophenyl)-5-(3-hydroxy-4-methoxyphenyl)pyridin-2-yl)piperidin-4-yl)amino)methyl)-3-methoxyphenyl)-N-hydroxyacrylamide formate], the IC50 on LSD1 is 10.8 nM; on pan-HDAC, 3.86 nM; at HDAC8, 171 nM; with NCI-H1417 cells (setting [1]) it was 13.2 nM; in the experiment on NCI-H69 cells (setting [2]), 103 nM; in the experiment on DU145 cells (setting [3]), 235 nM.
Regarding `Cn1cnc2cc(-c3cnc(N4CCC(NCc5ccc(/C=C/C(=O)NO)cc5)CC4)c(C#N)c3-c3ccc(C#N)c(F)c3)ccc21` [Example 136, (E)-3-(4-(((1-(3-Cyano-4-(4-cyano-3-fluorophenyl)-5-(1-methyl-1H-benzo[d]imidazol-5-yl))pyridin-2-yl)piperidin-4-yl)amino)methyl) phenyl)-N-hydroxyacrylamide formate], the IC50 worked out at 17.2 nM against LSD1; 10.4 nM against pan-HDAC; 77.7 nM on HDAC8; 29.1 nM in the experiment with NCI-H1417 cells (setting [1]); 93.7 nM in the experiment with NCI-H69 cells (setting [2]); 364 nM with DU145 cells (setting [3]).
With `COc1ccc(-c2cnc(N3CCC4(CC3)CN(Cc3ccc(/C=C/C(=O)NO)cc3)C4)c(C#N)c2-c2ccc(C#N)c(F)c2)cc1O` [Example 138, (E)-3-(4-(((7-(3-Cyano-4-(4-cyano-3-fluorophenyl)-5-(3-hydroxy-4-methoxyphenyl)pyridin-2-yl)-2,7-diazaspiro[3.5]nonan-2-yl)methyl)phenyl)-N-hydroxyacrylamide formate], the IC50 against LSD1 worked out at 21.4 nM; at pan-HDAC it was 61 nM; at HDAC8, 401 nM; in the experiment with NCI-H1417 cells (setting [1]), 30.7 nM; in the experiment with NCI-H69 cells (setting [2]) it was 91.6 nM; in the experiment with DU145 cells (setting [3]) it was 372 nM.
Turning to `N#Cc1ccc(-c2c(-c3ccc(OC(F)F)c(O)c3)cnc(N3CCC(NCc4cnc(/C=C/C(=O)NO)nc4)CC3)c2C#N)cc1F` [Example 145, (E)-3-(5-(((1-(3-Cyano-4-(4-cyano-3-fluorophenyl)-5-(4-(difluoromethoxy)-3-hydroxyphenyl)pyridin-2-yl)piperidin-4-yl)amino)methyl)pyrimidin-2-yl)-N-hydroxyacrylamide formate], the IC50 against LSD1 stood at 3.35 nM; against pan-HDAC, 5.23 nM; at HDAC8, 74.9 nM; in the experiment on NCI-H1417 cells (setting [1]), 18.6 nM; with NCI-H69 cells (setting [2]) it was 39.3 nM; in the experiment on DU145 cells (setting [3]) it was 37.8 nM.
As for `Cc1ccc(-c2cnc(N3CCC(NCc4cnc(/C=C/C(=O)NO)nc4)CC3)c(C#N)c2-c2ccc(C#N)c(F)c2)cc1O` [Example 148, (E)-3-(5-(((1-(3-Cyano-4-(4-cyano-3-fluorophenyl)-5-(3-hydroxy-4-methylphenyl)pyridin-2-yl)piperidin-4-yl)amino)methyl)pyrimidin-2-yl)-N-hydroxyacrylamide formate], the IC50 with NCI-H1417 cells (setting [1]) was 2.64 nM; in the experiment with NCI-H69 cells (setting [2]) it was 13.1 nM; in the experiment with DU145 cells (setting [3]), 21.8 nM; in the experiment on NCI-H526 cells (Homo sapiens, NCI-H526, 120 h) it was 6.22 nM.
The like results for `COc1ccc(-c2cnc(N3CCCC(NCc4ccc(/C=C/C(=O)NO)cc4)CC3)c(C#N)c2-c2ccc(C#N)c(F)c2)cc1O` (centres unmarked) [Example 149, (E)-3-(4-(((1-(3-Cyano-4-(4-cyano-3-fluorophenyl)-5-(3-hydroxy-4-methoxyphenyl)pyridin-2-yl)azepan-4-yl)amino)methyl)phenyl)-N-hydroxyacrylamide formate] were, in that order, 2.08 nM, 23.6 nM, 33.9 nM and 14.5 nM.
Turning to `COc1ccc(-c2cnc(N3CCC(NCc4ncc(/C=C/C(=O)NO)s4)CC3)c(C#N)c2-c2ccc(C#N)c(F)c2)cc1O` [Example 151, (E)-3-(2-(((1-(3-Cyano-4-(4-cyano-3-fluorophenyl)-5-(3-hydroxy-4-methoxyphenyl)pyridin-2-yl)piperidin-4-yl)amino)methyl)thiazol-5-yl)-N-hydroxyacrylamide hydrochloride], the IC50 against LSD1 amounted to 2.7 nM; against pan-HDAC, 27.4 nM; on HDAC8, 618 nM; in the experiment on NCI-H1417 cells (setting [1]) it was 10.4 nM; in the experiment on NCI-H69 cells (setting [2]), 189 nM; in the experiment with DU145 cells (setting [3]), 308 nM.
`COc1ccc(-c2cnc(N3CCC(NCc4cnc(CCC(=O)NO)nc4)CC3)c(C#N)c2-c2ccc(C#N)c(F)c2)cc1O` [Example 152, 3-(5-((1-(3-Cyano-4-(4-cyano-3-fluorophenyl)-5-(3-hydroxy-4-methoxyphenyl)pyridin-2-yl)piperidin-4-yl)amino)methyl) pyrimidin-2-yl)-N-hydroxypropanamide hydrochloride]: the IC50 amounted to 1.15 nM against LSD1; 2.57 nM against pan-HDAC; 131 nM at HDAC8; 4.91 nM with NCI-H1417 cells (setting [1]); 208 nM with NCI-H69 cells (setting [2]); 223 nM in the experiment with DU145 cells (setting [3]).
In the case of `COc1ccc(-c2cnc(N3CCC(NC(=O)CCCCCCC(=O)NO)CC3)c(C#N)c2-c2ccc(C#N)c(F)c2)cc1O` [Example 177, N^1-(1-(3-Cyano-4-(4-cyano-3-fluorophenyl)-5-(3-hydroxy-4-methoxyphenyl)pyridin-2-yl)piperidin-4-yl)-N^8-hydroxyoctanediamide formate], the IC50 at LSD1 came out at 963 nM; at pan-HDAC, 40.2 nM; at HDAC8 it was 581 nM; in the experiment on NCI-H1417 cells (setting [1]), 0.74 nM; with NCI-H69 cells (setting [2]), 639 nM; in the experiment with DU145 cells (setting [3]), 2030 nM.
